From US20230147257A1 (DONG-A ST CO., LTD., priority 2020, published 2023)

Target: T1, AhR (Mus musculus, UniProt P30561)
T1 sequence (P30561 1-848): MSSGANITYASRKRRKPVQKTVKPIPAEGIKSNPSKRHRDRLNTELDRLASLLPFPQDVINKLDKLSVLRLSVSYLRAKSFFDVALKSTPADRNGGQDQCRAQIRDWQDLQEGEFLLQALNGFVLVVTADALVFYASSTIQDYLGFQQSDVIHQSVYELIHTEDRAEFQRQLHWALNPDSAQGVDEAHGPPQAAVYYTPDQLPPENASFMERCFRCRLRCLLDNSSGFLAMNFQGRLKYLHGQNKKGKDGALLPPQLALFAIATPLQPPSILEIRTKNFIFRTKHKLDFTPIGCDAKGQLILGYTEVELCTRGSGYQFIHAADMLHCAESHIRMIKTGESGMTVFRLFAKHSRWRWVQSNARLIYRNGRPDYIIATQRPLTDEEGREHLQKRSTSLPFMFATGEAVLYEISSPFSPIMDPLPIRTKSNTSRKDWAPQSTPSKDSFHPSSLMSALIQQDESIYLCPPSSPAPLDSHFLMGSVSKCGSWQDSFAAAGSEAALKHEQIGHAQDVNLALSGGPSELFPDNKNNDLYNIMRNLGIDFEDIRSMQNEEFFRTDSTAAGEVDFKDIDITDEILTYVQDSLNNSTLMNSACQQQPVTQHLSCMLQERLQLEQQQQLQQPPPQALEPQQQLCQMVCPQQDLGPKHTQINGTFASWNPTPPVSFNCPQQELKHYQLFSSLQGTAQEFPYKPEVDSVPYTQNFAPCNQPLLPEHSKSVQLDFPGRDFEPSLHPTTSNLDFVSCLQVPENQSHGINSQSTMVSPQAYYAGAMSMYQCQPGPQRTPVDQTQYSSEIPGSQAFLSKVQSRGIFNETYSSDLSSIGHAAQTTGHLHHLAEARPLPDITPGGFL
Test: In vitro assay 2: XRE-luciferase reporter assay, antagonism in mouse cell line (Hepa1c1c7)
Format: cell-based
Settings: Hepa1c1c7 XRE-Luc, cells treated with kynurenine (#), 6 hours
Text: In Vitro XRE-Luciferase Reporter Assay (In Vitro Assay 1, 2, 3)
AhR activation leads the induction of target gene expression such as CYP1A1 and CYP1B1 by AhR binding to AhR-responsive DNA elements also known as xenobiotics responsive elements (XRE). The assay for measuring AhR activity herein is the luciferase assay using cell lines transfected with luciferase reporter plasmid containing XREs at the upstream of the reporter gene. Cells transfected with XRE-luciferase reporter (XRE-Luc) plasmid drive luciferase activity reflecting activation and inhibition of AhR in the cells. In addition to transfection with XRE-reporter vector, cells were co-transfected with Nano-luciferase reporter gene construct (Nano-Luc) containing constitutively active promoter as internal control. Kynurenine (an endogenous AhR agonist) was used to stimulate cells to test antagonistic properties of the compounds. The half-maximal inhibitory concentration (IC50) or half-maximal effective concentration (EC50) value was calculated using nonlinear regression (four parameters) with Prism8.0 software (GraphPad).
In Vitro Assay 2: Antagonism in Mouse Cell Line
Hepa1c1c7 (murine liver cancer cell line) cells co-transfected with XRE-Luc and Nano-Luc plasmids were plated in complete medium and incubated overnight at 37° C. in a CO2 incubator. Following incubation, cells were treated with AhR activating ligands such as kynurenic acid, kynurenine(#) with or without test compounds for 6 hours. Firefly luciferase and Nano-luciferase activity was measured using Nano-glo Luciferase kit (Promega) and relative luciferase activity (Firefly/Nano-Luc) was used to calculate IC50 values. The relative luciferase activity was further normalized with agonists alone group as the maximum control and the vehicle group as the minimum control. (IC50 Values are grouped as A, B, C and D, whereby A: IC50<0.01 μM; B: 0.01<IC50<0.1 μM; C: 0.1<IC50<1.0 μM; D: IC50>1.0 μM)

With `CC(CO)n1cnc2c(-c3cccnc3)nc(-c3ccc(Cl)cc3)cc2c1=O` (stereo not shown) [Example 46, 6-(4-chlorophenyl)-3-(1-hydroxypropan-2-yl)-8-(pyridin-3-yl)pyrido[3,4-d]pyrimidin-4(3H)-one] as the molecule, how does the IC50 read?
Its IC50 is under 10 nM.
